Experimental data published in US9782411B2, “{4-[5-(3-chloro-phenoxy)-oxazolo[5,4-d]pyrimidin-2-yl]-2,6-dimethyl-phenoxy}-acetic acid for use in the prevention or treatment of acute kidney injury” (Sanofi, priority 2013, dated 2017).

Columns and labels:
S1P4 = target: T1, S1P4 (Homo sapiens, UniProt O95977); experiment: FlipR (Chem) GPCRProfiler assay, S1P4; type: cell-based
T1 sequence (O95977 1-384): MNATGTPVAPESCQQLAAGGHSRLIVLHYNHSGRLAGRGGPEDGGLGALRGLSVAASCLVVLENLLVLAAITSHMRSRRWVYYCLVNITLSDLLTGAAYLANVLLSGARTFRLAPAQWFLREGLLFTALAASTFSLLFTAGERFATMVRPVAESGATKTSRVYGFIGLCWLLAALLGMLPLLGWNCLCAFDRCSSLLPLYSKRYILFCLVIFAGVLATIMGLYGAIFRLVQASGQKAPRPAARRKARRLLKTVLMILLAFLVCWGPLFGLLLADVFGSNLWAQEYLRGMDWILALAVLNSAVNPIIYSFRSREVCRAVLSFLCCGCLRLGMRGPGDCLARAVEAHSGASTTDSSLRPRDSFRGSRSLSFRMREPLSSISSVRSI
From the text: The GPCRProfiler® assay from Millipore was used to determine the EC50 activity of compound A, BAF-312 and fingolimod on S1P1, S1P2, S1P3, S1P4 or S1P5 receptors. These assays used ChemiScreen GPCR stable cell lines.

[1] = Pharmacokinetics in male Fisher rat; conditions: in vivo, po, 3 mg/kg p.o.
[2] = Pharmacokinetics in beagle dog; conditions: in vivo, po, 3 mg/kg p.o.
[3] = target: T2, human ERG (ether-a-go-go related gene) potassium channel (Homo sapiens, UniProt Q12809); experiment: hERG assay (patch clamp, CHO cells); type: cell-based
T2 construct: host or cells: CHO (Chinese Hamster Ovary)
Protocol: Recombinant CHO (Chinese Hamster Ovary) cell line expressing the human ERG (ether-a-go-go related gene) potassium channel (Cytomyx Catalogue Number: CYL3002) has been cultured according to the following protocol. When necessary a culture has been restarted from frozen aliquots. The aliquots of frozen cells (1 mL) were rapidly warmed to 37° C. and first replated in a 75 cm^2 flask (Corning). The volume was then adjusted to 10 mL with the α-Minimum Essential Medium (Gibco 32571-028) containing 10% fetal calf serum. The medium has been renewed after 24 h and 1% geneticin (G418, Gibco 10131) has been added to prevent cellular derivation. […]
The hERG current was activated in response to voltage steps (2 s) from a holding potential of −80 mV to a test potential of +20 mV followed by a repolarization to −100 mV. Voltage steps were applied at 20 s intervals. hERG current was measured as the tail deactivating current at −100 mV. After a 3 minutes period for baseline measurements, compound A effects were measured 4-6 minutes after the change of solution.
The currents were analyzed using a database and analysis software DataXpress 1.0 (Axon Instruments/Molecular Devices).
Where “I” was the current measured after drug effect, “Irisperidone” was the current measured after the effect of the specific hERG-blocker and “Ibaseline” was the current measured before the superfusion of drug.

[4] = tested on: isolated rabbit Purkinje fibers; experiment: Rabbit Purkinje fibers assay
Protocol: The effects of compound A on resting membrane potential and action potential parameters recorded from isolated rabbit Purkinje fibers (male, New Zealand rabbits; 1.3 to 1.5 kg; 9-12 weeks of age) were evaluated through a microelectrode technique. […] The fibers were superfused with an oxygenated physiological solution containing (in mmol/L): NaCl, 120; KCl, 4; MgCl2, 1; NaH2PO4, 1.8; NaHCO3, 25; glucose, 11; CaCl2, 1.8; pH=7.4, at 36±1° C. Compound A was first dissolved into DMSO to obtain a 12 mmol/L stock solution. This solution was further diluted into DMSO and then added into the physiological solution to obtain the appropriate nominal concentrations of 0.3, 1, 3, 10 and 30 μmol/L (i.e., 0.1, 0.5, 1.4, 4.5 and 13.6 μg/mL of active ingredient, respectively). The final concentration of DMSO in the test formulation was kept constant at 0.25% (v/v) in the physiological solution. Purkinje fibers (n=4) were first superfused by the physiological solution. After a 30-minute control period, test compound was evaluated at increasing concentrations sequentially applied, every 30 minutes. For each tested concentration, the fibers were stimulated at the basal rate of 1 pulse per second (1 Hz). […]

RPTEC = experiment: Tunicamycin-induced apoptosis assay in RPTEC (Caspase-Glo 3/7); type: cell-based; conditions: Homo sapiens, read-out: EC50 inhibition of tunicamycin-induced apoptosis (caspase 3/7 activity)
Protocol: The effect of compound A on tunicamycin (TN)-induced apoptosis in RPTEC was measured by the mean of the Caspase-Glo 3/7 assay kit (Promega). Briefly, RPTEC cells (Lonza) were seeded in 96 multiwell white plates at 30×10^3 cells per well in REGM (REBM medium plus 0.5% FCS plus Single quots, Lonza) and allowed to adhere for 24 h. After 24 h, complete medium was replaced by serum and supplements free medium (56 μL/well). Cells were pre-treated for 30 min by compound A (final concentrations 0.3-30 μM, 7 μL) followed by addition of tunicamycin (TN, final concentration, 0.1 μg/mL, 7 μL). After 24 hours at 37° C. 5% CO2, 70 μL of Caspase-Glo reagent were added and culture plate placed under shaking for 1 hour. Luminescence was recorded by the mean of the Envision reader (Perkin Elmer). Results are expressed as percent inhibition of TN-induced apoptosis.

T2 sequence (Q12809 whole entry): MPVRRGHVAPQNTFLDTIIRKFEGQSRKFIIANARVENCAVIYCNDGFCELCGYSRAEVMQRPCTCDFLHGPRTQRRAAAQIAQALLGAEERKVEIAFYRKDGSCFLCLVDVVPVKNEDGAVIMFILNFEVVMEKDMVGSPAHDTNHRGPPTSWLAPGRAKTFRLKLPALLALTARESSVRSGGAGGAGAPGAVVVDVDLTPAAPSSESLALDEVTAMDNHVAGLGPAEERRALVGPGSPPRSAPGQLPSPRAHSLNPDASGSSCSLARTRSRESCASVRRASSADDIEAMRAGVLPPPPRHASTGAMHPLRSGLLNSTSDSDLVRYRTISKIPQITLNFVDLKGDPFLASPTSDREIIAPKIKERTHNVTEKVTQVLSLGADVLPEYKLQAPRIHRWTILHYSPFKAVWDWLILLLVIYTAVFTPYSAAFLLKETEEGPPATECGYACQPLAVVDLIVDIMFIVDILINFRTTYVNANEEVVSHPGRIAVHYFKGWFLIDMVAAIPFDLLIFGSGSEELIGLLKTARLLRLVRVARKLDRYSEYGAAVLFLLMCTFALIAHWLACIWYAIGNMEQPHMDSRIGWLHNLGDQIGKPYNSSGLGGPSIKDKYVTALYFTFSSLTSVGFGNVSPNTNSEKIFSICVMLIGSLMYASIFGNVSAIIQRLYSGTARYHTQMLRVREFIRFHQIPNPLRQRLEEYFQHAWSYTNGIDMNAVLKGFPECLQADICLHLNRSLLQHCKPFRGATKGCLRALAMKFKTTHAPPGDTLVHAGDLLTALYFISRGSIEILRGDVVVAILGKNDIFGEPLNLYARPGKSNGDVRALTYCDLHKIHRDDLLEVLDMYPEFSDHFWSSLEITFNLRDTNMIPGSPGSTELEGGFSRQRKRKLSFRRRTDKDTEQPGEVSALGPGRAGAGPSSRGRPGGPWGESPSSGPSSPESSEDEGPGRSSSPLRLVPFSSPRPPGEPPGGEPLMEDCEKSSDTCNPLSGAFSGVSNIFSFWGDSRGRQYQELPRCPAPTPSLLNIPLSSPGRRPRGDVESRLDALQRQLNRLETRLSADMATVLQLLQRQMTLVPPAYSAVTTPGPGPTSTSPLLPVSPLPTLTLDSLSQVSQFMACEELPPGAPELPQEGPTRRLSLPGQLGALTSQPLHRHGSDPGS

Row | EC50 (S1P4) [µM] | AUC [1] [ng·h/mL] | Cmax [1] [ng/mL] | AUC [2] [ng·h/mL] | Cmax [2] [ng/mL] | Effect on action potential ([4]; 26 μM) | Effect on resting membrane potential and action potential parameters ([4]; 0.3 to 10 μM) | EC50 (RPTEC) [µM] | SMILES | IC50 [3] [µM]
1 | > 30 | – | – | – | – | – | – | – | CCc1cc(/C(C)=N/OCc2ccc(C3CCCCC3)c(C(F)(F)F)c2)ccc1CN1CC(C(=O)O)C1 [BAF-312] | –
2 | > 30 | 13000 | 2560 | 41300 | 2910 | shortening of the action potential | no significant effect | 3 to 10 | Cc1cc(-c2nc3cnc(Oc4cccc(Cl)c4)nc3o2)cc(C)c1OCC(=O)O [Compound A, {4-[5-(3-chloro-phenoxy)-oxazolo[5,4-d]pyrimidin-2-yl]-2,6-dimethyl-phenoxy}-acetic acid] | > 30
